Paper PMC9150076 (Journal of Medicinal Chemistry, 2022)

Columns and labels:
[1] = target: T1, human FAAH (Homo sapiens, UniProt O00519); set-up: purchased Cayman Chemical; method as in PMID 33045662; details: reference benzoylpiperidines; read-out: IC50 hFAAH; cited from earlier work
T1 sequence (O00519 1-579): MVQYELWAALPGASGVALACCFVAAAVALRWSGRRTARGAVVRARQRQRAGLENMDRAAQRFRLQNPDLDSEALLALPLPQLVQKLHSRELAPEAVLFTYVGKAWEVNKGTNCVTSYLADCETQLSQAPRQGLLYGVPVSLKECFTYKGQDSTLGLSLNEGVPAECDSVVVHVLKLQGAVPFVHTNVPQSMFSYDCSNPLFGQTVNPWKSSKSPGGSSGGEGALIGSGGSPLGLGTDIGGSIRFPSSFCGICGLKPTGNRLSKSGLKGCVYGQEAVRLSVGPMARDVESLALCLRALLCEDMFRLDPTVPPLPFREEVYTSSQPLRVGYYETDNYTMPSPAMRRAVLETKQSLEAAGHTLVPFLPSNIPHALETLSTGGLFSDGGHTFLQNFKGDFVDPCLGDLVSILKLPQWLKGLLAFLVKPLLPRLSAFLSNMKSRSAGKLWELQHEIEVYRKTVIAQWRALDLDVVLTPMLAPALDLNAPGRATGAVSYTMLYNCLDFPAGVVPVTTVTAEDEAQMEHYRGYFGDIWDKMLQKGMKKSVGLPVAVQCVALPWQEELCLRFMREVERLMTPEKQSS

[2] = target: T2, human MAGL (Homo sapiens, UniProt Q99685); set-up: purchased Cayman Chemical; method as in PMID 33045662; details: reference benzoylpiperidines; read-out: IC50 hMAGL; cited from earlier work
T2 sequence (Q99685 1-303): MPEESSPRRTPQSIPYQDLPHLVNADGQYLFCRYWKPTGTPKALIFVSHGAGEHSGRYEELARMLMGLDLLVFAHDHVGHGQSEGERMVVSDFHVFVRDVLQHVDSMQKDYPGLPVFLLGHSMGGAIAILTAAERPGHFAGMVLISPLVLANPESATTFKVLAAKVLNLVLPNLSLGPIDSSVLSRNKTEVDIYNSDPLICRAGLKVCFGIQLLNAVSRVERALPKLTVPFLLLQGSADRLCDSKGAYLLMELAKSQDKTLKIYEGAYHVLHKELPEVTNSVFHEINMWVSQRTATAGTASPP

[3] = system: PDAC3 primary cell culture; experiment: Growth inhibition, SRB assay, PDAC3; type: cell-based, human; details: PDAC3, SRB
[4] = target: MAGL (Mus musculus, UniProt O35678)
[5] = target: T2, human MAGL
[6] = system: PDAC3 cells; experiment: Wound-healing/migration assay, PDAC3; type: cell-based, human; details: PDAC3, 20 h, drug at 5× IC50; control 59 ± 8%
[7] = system: active caspase-3 in PDAC3 cells; experiment: Active caspase-3 immunoassay, PDAC3; type: cell-based, human; details: PDAC3, compared to untreated cells
[8] = system: PDAC2 cells; details: PDAC2, single agent
[9] = system: active caspase-3 in PDAC2 cells; experiment: Active caspase-3 immunoassay, PDAC2; type: cell-based, human; details: untreated 0.35

Sequence of MAGL (O35678 whole entry): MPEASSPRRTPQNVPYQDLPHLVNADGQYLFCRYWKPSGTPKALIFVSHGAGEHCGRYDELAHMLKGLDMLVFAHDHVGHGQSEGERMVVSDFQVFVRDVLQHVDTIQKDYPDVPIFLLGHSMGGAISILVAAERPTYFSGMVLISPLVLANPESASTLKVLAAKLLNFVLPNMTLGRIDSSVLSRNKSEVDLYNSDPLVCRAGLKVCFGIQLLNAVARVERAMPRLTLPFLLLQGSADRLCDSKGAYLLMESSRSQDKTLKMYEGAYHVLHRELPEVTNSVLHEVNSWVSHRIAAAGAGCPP

Row | SMILES | IC50 [1] | IC50 [2] | PDAC3 cell growth inhibitory effect (cell growth curves) [3] | TAMRA-FP labelling of MAGL bands (ABPP) [4] | mechanism of inhibition (pre-incubation and dilution assays) [5] | scratch area closed [6] | levels of active caspase-3 [7] | apoptosis fold induction/change [8] | levels of active caspase-3 [9]
1 | O=C(c1ccc(Sc2ccccc2)cc1)C1CCN(C(=O)c2cc(O)ccc2F)CC1 [Compound 5b] | > 10000 nM | 30.5 ± 1.8 nM |  |  |  |  |  |  | 
2 | O=C(Oc1ccc([N+](=O)[O-])cc1)N1CCC(C(O)(c2ccc3c(c2)OCO3)c2ccc3c(c2)OCO3)CC1 [JZL-184] |  |  | effective in reducing PDAC3 proliferation | can fully compete with the probe | irreversible mechanism of action | 43 ± 8% | similarly effective in stimulating caspase-3 |  | 
3 | Nc1ccn([C@@H]2O[C@H](CO)[C@@H](O)C2(F)F)c(=O)n1 [gemcitabine] |  |  |  |  |  |  | significantly higher levels of active caspase-3 | ~5 fold | 0.88 ng/mL
